Results: patent US11339165B2, “Pyrazolopyrimidines having activity against the respiratory syncytial virus (RSV)” (priority 2017, dated 2022)

Assays:
rgRSV224 virus = experiment: Antiviral activity: rgRSV224 (GFP) replication in HeLa cells; format: cell-based, respiratory syncytial virus (RSV); conditions: human respiratory syncytial virus, HeLa, 72 h, read-out: RSV HELA EC50 (μM), rgRSV224 virus (MOI=1), HeLa cells, GFP expression three days post-virus exposure
in vitro = conditions: human, TOX HELA CC50 (μM)
Method: Black 384-well clear-bottom microtiter plates (Corning, Amsterdam, The Netherlands) were filled via acoustic drop ejection using the echo liquid handler (Labcyte, Sunnyvale, Calif.). 200 nL of compound stock solutions (100% DMSO) were transferred to the assay plates. 9 serial 4-fold dilutions of compound were made, creating per quadrant the same compound concentration. The assay was initiated by adding 10 μL of culture medium to each well (RPMI medium without phenol red, 10% FBS-heat inactivated, 0.04% gentamycin (50 mg/mL). All addition steps are done by using a multidrop dispenser (Thermo Scientific, Erembodegem, Belgium). Next, rgRSV224 virus (MOI=1) diluted in culture medium was added to the plates. rgRSV224 virus is an engineered virus that includes an additional GFP gene (Hallak L K, Spillmann D, Collins P L, Peeples M E. Glycosaminoglycan sulfation requirements for respiratory syncytial virus infection; Journal of virology (2000), 74(22), 10508-13) and was in-licensed from the NIH (Bethesda, Md., USA). Finally, 20 μL of a HeLa cell suspension (3,000 cells/well) were plated. Medium, virus- and mock-infected controls were included in each test. The wells contain 0.05% DMSO per volume. Cells were incubated at 37° C. in a 5% CO2 atmosphere. Three days post-virus exposure, viral replication was quantified by measuring GFP expression in the cells by an in house developed MSM laser microscope (Tibotec, Beerse, Belgium). The EC50 was defined as the 50% inhibitory concentration for GFP expression. In parallel, compounds were incubated for three days in a set of white 384-well microtiter plates (Corning) and the cytotoxicity of compounds in HeLa cells was determined by measuring the ATP content of the cells using the ATPlite kit (Perkin Elmer, Zaventem, Belgium) according to the manufacturer's instructions. The CC50 was defined as the 50% concentration for cytotoxicity.

CNC(=O)CC1CN(c2ccc(-c3cc4nc(C(=O)N5CCc6ccccc6[C@H]5C)cc(C5CC5)n4n3)c(F)c2)C1 [Compound 66, 2-[1-(4-{7-Cyclopropyl-5-[(1R)-1-methyl-1,2,3,4-tetrahydroisoquinoline-2-carbonyl]-pyrazolo[1,5-a]pyrimidin-2-yl}-3-fluorophenyl)azetidin-3-yl]-N-methylacetamide]
melting point: 143.13 °C
EC50 (rgRSV224 virus): 0.04 µM
CC50 at 3 days (in vitro): 36.4 µM

C[C@@H]1c2ccccc2CCN1C(=O)c1cc(C2CC2)n2nc(-c3ccc(N4CC[C@@H](NS(C)(=O)=O)C4)cc3F)cc2n1 [Compound 11, N-[(3R)-1-(4-{7-Cyclopropyl-5-[(1R)-1-methyl-1,2,3,4-tetrahydroisoquinoline-2-carbonyl]pyrazolo[1,5-a]pyrimidin-2-yl}-3-fluorophenyl)pyrrolidin-3-yl]methane-sulfonamide]
melting point: 159.35 °C
EC50 (rgRSV224 virus): 0.044 µM
CC50 at 3 days (in vitro): > 100 µM

C[C@@H]1c2ccccc2CCN1C(=O)c1cc(C2CC2)n2nc(-c3ccc(N4CC[C@H](NC(=O)C(F)(F)F)C4)cc3F)cc2n1 [Compound 76, N-[(3S)-1-(4-{7-Cyclopropyl-5-[(1R)-1-methyl-1,2,3,4-tetrahydroisoquinoline-2-carbonyl]pyrazolo[1,5-a]pyrimidin-2-yl}-3-fluorophenyl)pyrrolidin-3-yl]-2,2,2-trifluoroacetamide]
melting point: 221.2 °C
EC50 (rgRSV224 virus): 0.246 µM
CC50 at 3 days (in vitro): > 100 µM

C[C@@H]1c2ccccc2CCN1C(=O)c1cc(-c2ccc(C#N)cc2)n2nc(-c3ccc(N4CC[C@H](C(N)=O)C4)cc3F)cc2n1 [Compound 62, (3S)-1-{4-[7-(4-Cyanophenyl)-5-[(1R)-1-methyl-1,2,3,4-tetrahydroisoquinoline-2-carbonyl]pyrazolo[1,5-a]pyrimidin-2-yl]-3-fluorophenyl}pyrrolidine-3-carboxamide]
melting point: 173.36 °C
EC50 (rgRSV224 virus): 0.043 µM
CC50 at 3 days (in vitro): > 100 µM

C[C@@H]1c2ccsc2CCN1C(=O)c1cc(C2CC2)n2nc(-c3ccc(N4CC[C@H](CC(N)=O)C4)cc3F)cc2n1 (single isomer, unassigned) [Compound 42, 2-[(3R)-1-(4-{7-Cyclopropyl-5-[(4*R)-4-methyl-4,5,6,7-tetrahydro-thieno[3,2-c]pyridine-5-carbonyl]pyrazolo[1,5-a]pyrimidin-2-yl}-3-fluorophenyl)pyrrolidin-3-yl]acetamide]
melting point: 206.84 °C
EC50 (rgRSV224 virus): 0.025 µM
CC50 at 3 days (in vitro): 28.9 µM

C[C@@H]1c2ccccc2CCN1C(=O)c1cc(C2CC2)n2nc(-c3ccc(N4CC[C@H](C(N)=O)C4)nc3F)cc2n1 [Compound 49, (3S)-1-(5-{7-Cyclopropyl-5-[(1R)-1-methyl-1,2,3,4-tetrahydroisoquinoline-2-carbonyl]-pyrazolo[1,5-a]pyrimidin-2-yl}-6-fluoropyridin-2-yl)pyrrolidine-3-carboxamide]
melting point: 239.19 °C
EC50 (rgRSV224 virus): 0.024 µM
CC50 at 3 days (in vitro): 32.3 µM
